{
  "source": "patent US6096930A",
  "about": "“Herbicidal cyclohexane-1,3-dione derivatives and their preparation process” (Korea Research Institute of Chemical Technology, priority 1994, dated 2000)",
  "assay_type_in_all_cases": "in vivo",
  "key": {"DIGSA [1]": {"tested_on": "DIGSA", "assay": "Herbicidal activity, upland test, post-emergence", "description": "(§1) The sterilized sandy loam soil is filled in test pot having a surface area of 348 cm^2 for upland test conditions or 115 cm^2 for paddy test species were planted in furrows.\n(§2) The pots for the post-emergent tests were placed in a greenhouse and watered for 9~14 days, then the foliage of test plants was sprayed with a solution of the test compound in a mixture of acetone and water containing a small amount of Tween 20.\n(§3) After spraying the plants were kept for one day, then watered regularly for 14 to 21 days, and herbicidal activity data were recorded.\n(§4) The herbicidal activity data were taken visually by percent control, wherein 0 signifies no herbicidal effect and 100 signifies complete kill."}, "ECHOR [2]": {"tested_on": "ECHOR", "assay": "Herbicidal activity, upland test, post-emergence", "description": "as §1, §2, §3, §4"}, "SOLNI": {"tested_on": "SOLNI", "assay": "Herbicidal activity, upland test, pre-emergence", "protocol": "as §1\n(§5) For the pre-emergent tests, were sprayed on the soil one day after planting test compound in a mixture of acetone and 7 ml of the water containing up to 0.1% Tween 20.\n(§6) The concentration of the test compound in solution was varied to give a range of application rates, generally 4.0 kg/ha and submultiples thereof. The pots were placed in a greenhouse and watered regularly at the soil surface for 21 days and herbicidal effects were visually rated by a percent control.\nas §4"}, "GOSHI": {"tested_on": "GOSHI", "assay": "Herbicidal activity, upland test, pre-emergence", "protocol": "as §1, §5, §6, §4"}, "ABUTH": {"tested_on": "ABUTH", "assay": "Herbicidal activity, upland test, pre-emergence", "protocol": "as §1, §5, §6, §4"}, "DIGSA [3]": {"tested_on": "DIGSA", "assay": "Herbicidal activity, upland test, pre-emergence", "protocol": "as §1, §5, §6, §4"}, "ECHOR [4]": {"tested_on": "ECHOR", "assay": "Herbicidal activity, upland test, pre-emergence", "protocol": "as §1, §5, §6, §4"}, "MOOVA": {"tested_on": "MOOVA", "assay": "Herbicidal activity for paddy test", "method_in_brief": "(§7)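 Scores are visual estimates of percent control (0, no effect; 100, plants completely killed), recorded on species planted in furrows in sterilized sandy loam held in 115 cm^2 paddy pots.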"}, "SAGPY": {"tested_on": "SAGPY", "assay": "Herbicidal activity for paddy test", "method_in_brief": "as §7"}, "SCPJU": {"tested_on": "SCPJU", "assay": "Herbicidal activity for paddy test", "method_in_brief": "as §7"}, "ORYSA": {"tested_on": "ORYSA", "assay": "Herbicidal activity for paddy test", "conditions": "for plant injury at 2 g/ha: 0.002 kg/ha; for plant injury at 8 g/ha: 0.008 kg/ha; for plant injury at 31 g/ha: 0.031 kg/ha; for plant injury at 125 g/ha: 0.125 kg/ha; for plant injury at 500 g/ha: 0.500 kg/ha", "method_in_brief": "as §7"}, "ECHOR [5]": {"tested_on": "ECHOR", "assay": "Herbicidal activity for paddy test", "method_in_brief": "as §7"}, "[6]": {"conditions": "3 Leaf, read-out: Herbicidal activity, ORYSA (3 Leaf)"}, "[7]": {"conditions": "seed, read-out: Herbicidal activity, ORYSA (seed)"}},
  "note": "Read-outs that look alike come from different tables or passages of the source.",
  "data": [
    {"compound": "CCON=C(CC)C1=C(O)CC(c2c(C)c(C)c3c(c2C)CC(C)(C)C3)CC1=O", "note": "(stereo not shown) [Compound 2]", "values": [
      {"measurement": "Herbicidal activity, DIGSA", "setting": "DIGSA [1]; 0.063 kg/ha", "value": 100, "unit": "% inhibition"},
      {"measurement": "Herbicidal activity, DIGSA", "setting": "DIGSA [1]; 1.000 kg/ha", "value": 100, "unit": "% inhibition"},
      {"measurement": "Herbicidal activity, DIGSA", "setting": "DIGSA [1]; 1.250 kg/ha", "value": 100, "unit": "% inhibition"},
      {"measurement": "Herbicidal activity, ECHOR", "setting": "ECHOR [2]; 0.004 kg/ha", "value": 80, "unit": "% inhibition"},
      {"measurement": "Herbicidal activity, ECHOR", "setting": "ECHOR [2]; 0.016 kg/ha", "value": 90, "unit": "% inhibition"},
      {"measurement": "Herbicidal activity, ECHOR", "setting": "ECHOR [2]; 0.063 kg/ha", "value": 100, "unit": "% inhibition"},
      {"measurement": "Herbicidal activity, ECHOR", "setting": "ECHOR [2]; 1.000 kg/ha", "value": 100, "unit": "% inhibition"},
      {"measurement": "Herbicidal activity, ECHOR", "setting": "ECHOR [2]; 1.250 kg/ha", "value": 100, "unit": "% inhibition"},
      {"measurement": "Herbicidal activity, SOLNI", "setting": "SOLNI; 0.016 kg/ha", "value": 0, "unit": "% inhibition"},
      {"measurement": "Herbicidal activity, SOLNI", "setting": "SOLNI; 0.063 kg/ha", "value": 0, "unit": "% inhibition"},
      {"measurement": "Herbicidal activity, SOLNI", "setting": "SOLNI; 1.000 kg/ha", "value": 0, "unit": "% inhibition"},
      {"measurement": "Herbicidal activity, SOLNI", "setting": "SOLNI; 1.250 kg/ha", "value": 0, "unit": "% inhibition"},
      {"measurement": "Herbicidal activity, GOSHI", "setting": "GOSHI; 0.016 kg/ha", "value": 0, "unit": "% inhibition"},
      {"measurement": "Herbicidal activity, GOSHI", "setting": "GOSHI; 0.063 kg/ha", "value": 0, "unit": "% inhibition"},
      {"measurement": "Herbicidal activity, GOSHI", "setting": "GOSHI; 1.000 kg/ha", "value": 0, "unit": "% inhibition"},
      {"measurement": "Herbicidal activity, GOSHI", "setting": "GOSHI; 1.250 kg/ha", "value": 0, "unit": "% inhibition"},
      {"measurement": "Herbicidal activity, ABUTH", "setting": "ABUTH; 0.016 kg/ha", "value": 0, "unit": "% inhibition"},
      {"measurement": "Herbicidal activity, ABUTH", "setting": "ABUTH; 0.063 kg/ha", "value": 0, "unit": "% inhibition"},
      {"measurement": "Herbicidal activity, ABUTH", "setting": "ABUTH; 1.000 kg/ha", "value": 0, "unit": "% inhibition"},
      {"measurement": "Herbicidal activity, ABUTH", "setting": "ABUTH; 1.250 kg/ha", "value": 0, "unit": "% inhibition"},
      {"measurement": "Herbicidal activity, DIGSA", "setting": "DIGSA [3]; 0.016 kg/ha", "value": 0, "unit": "% inhibition"},
      {"measurement": "Herbicidal activity, DIGSA", "setting": "DIGSA [3]; 0.063 kg/ha", "value": 60, "unit": "% inhibition"},
      {"measurement": "Herbicidal activity, DIGSA", "setting": "DIGSA [3]; 1.000 kg/ha", "value": 100, "unit": "% inhibition"},
      {"measurement": "Herbicidal activity, DIGSA", "setting": "DIGSA [3]; 1.250 kg/ha", "value": 100, "unit": "% inhibition"},
      {"measurement": "Herbicidal activity, ECHOR", "setting": "ECHOR [4]; 0.016 kg/ha", "value": 0, "unit": "% inhibition"},
      {"measurement": "Herbicidal activity, ECHOR", "setting": "ECHOR [4]; 0.063 kg/ha", "value": 40, "unit": "% inhibition"},
      {"measurement": "Herbicidal activity, ECHOR", "setting": "ECHOR [4]; 1.000 kg/ha", "value": 100, "unit": "% inhibition"},
      {"measurement": "Herbicidal activity, ECHOR", "setting": "ECHOR [4]; 1.250 kg/ha", "value": 100, "unit": "% inhibition"},
      {"measurement": "pest or weed control at 2 g/ha", "setting": "MOOVA; 0.002 kg/ha", "value": 0, "unit": "%"},
      {"measurement": "pest or weed control at 8 g/ha", "setting": "MOOVA; 0.008 kg/ha", "value": 0, "unit": "%"},
      {"measurement": "pest or weed control at 31 g/ha", "setting": "MOOVA; 0.031 kg/ha", "value": 0, "unit": "%"},
      {"measurement": "pest or weed control at 125 g/ha", "setting": "MOOVA; 0.125 kg/ha", "value": 0, "unit": "%"},
      {"measurement": "pest or weed control at 500 g/ha", "setting": "MOOVA; 0.500 kg/ha", "value": 0, "unit": "%"},
      {"measurement": "pest or weed control at 2 g/ha", "setting": "SAGPY; 0.002 kg/ha", "value": 0, "unit": "%"},
      {"measurement": "pest or weed control at 8 g/ha", "setting": "SAGPY; 0.008 kg/ha", "value": 0, "unit": "%"},
      {"measurement": "pest or weed control at 31 g/ha", "setting": "SAGPY; 0.031 kg/ha", "value": 0, "unit": "%"},
      {"measurement": "pest or weed control at 125 g/ha", "setting": "SAGPY; 0.125 kg/ha", "value": 0, "unit": "%"},
      {"measurement": "pest or weed control at 500 g/ha", "setting": "SAGPY; 0.500 kg/ha", "value": 0, "unit": "%"},
      {"measurement": "pest or weed control at 2 g/ha", "setting": "SCPJU; 0.002 kg/ha", "value": 0, "unit": "%"},
      {"measurement": "pest or weed control at 8 g/ha", "setting": "SCPJU; 0.008 kg/ha", "value": 0, "unit": "%"},
      {"measurement": "pest or weed control at 31 g/ha", "setting": "SCPJU; 0.031 kg/ha", "value": 0, "unit": "%"},
      {"measurement": "pest or weed control at 125 g/ha", "setting": "SCPJU; 0.125 kg/ha", "value": 0, "unit": "%"},
      {"measurement": "pest or weed control at 500 g/ha", "setting": "SCPJU; 0.500 kg/ha", "value": 0, "unit": "%"},
      {"measurement": "plant injury at 2 g/ha", "setting": "ORYSA; [6]", "value": 0, "unit": "%"},
      {"measurement": "plant injury at 8 g/ha", "setting": "ORYSA; [6]", "value": 0, "unit": "%"},
      {"measurement": "plant injury at 31 g/ha", "setting": "ORYSA; [6]", "value": 0, "unit": "%"},
      {"measurement": "plant injury at 125 g/ha", "setting": "ORYSA; [6]", "value": 60, "unit": "%"},
      {"measurement": "plant injury at 500 g/ha", "setting": "ORYSA; [6]", "value": 100, "unit": "%"},
      {"measurement": "plant injury at 2 g/ha", "setting": "ORYSA; [7]", "value": 30, "unit": "%"},
      {"measurement": "plant injury at 8 g/ha", "setting": "ORYSA; [7]", "value": 80, "unit": "%"},
      {"measurement": "plant injury at 31 g/ha", "setting": "ORYSA; [7]", "value": 100, "unit": "%"},
      {"measurement": "plant injury at 125 g/ha", "setting": "ORYSA; [7]", "value": 100, "unit": "%"},
      {"measurement": "plant injury at 500 g/ha", "setting": "ORYSA; [7]", "value": 100, "unit": "%"},
      {"measurement": "pest or weed control at 2 g/ha", "setting": "ECHOR [5]; 0.002 kg/ha", "value": 60, "unit": "%"},
      {"measurement": "pest or weed control at 8 g/ha", "setting": "ECHOR [5]; 0.008 kg/ha", "value": 100, "unit": "%"},
      {"measurement": "pest or weed control at 31 g/ha", "setting": "ECHOR [5]; 0.031 kg/ha", "value": 100, "unit": "%"},
      {"measurement": "pest or weed control at 125 g/ha", "setting": "ECHOR [5]; 0.125 kg/ha", "value": 100, "unit": "%"},
      {"measurement": "pest or weed control at 500 g/ha", "setting": "ECHOR [5]; 0.500 kg/ha", "value": 100, "unit": "%"}
    ]}
  ]
}
